From patent US11000033B2, “Ketone or oxime compound, and herbicide” (NISSAN CHEMICAL CORPORATION, priority 2014, dated 2021)

How the values were obtained:
Type in all cases: in vivo
[1] = tested on: Scirpus juncoides; assay: Test Example 2: herbicidal activity, application during weed generation in submerged conditions (symbol B); settings: Table 23; application herbicide amount 320 g/ha; grade 0-5 by criteria of Test Example 1
Method in brief: (§1)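 Seeds sown in flooded alluvial soil (4 cm water) were grown in a 25-30° C greenhouse. At the one- to two-leaf stage, diluted emulsion of compound was applied to the water surface at a predetermined rate. Effect was scored 3 weeks later.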

[2] = tested on: Chenopodium album; assay: Test Example 5: herbicidal effect by foliage application, plastic box (symbol O); settings: 320 g/ha, 3 weeks after application
Method in brief: (§2)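 Effect is rated 3 weeks after a foliar spray of water-diluted emulsion concentrate at a predetermined herbicide amount. Plants had grown 14 days in a 25° C. to 30° C. greenhouse from seed in sterilized diluvial soil.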

[3] = tested on: rapeseed; assay: Test Example 4: effect on crop by soil treatment (symbol g); settings: application herbicide amount 320 g/ha
Method in brief: (§3)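 Grown at 25° C. to 30° C. in a greenhouse, the crops came from seed sown spot-wise in sterilized diluvial soil under roughly 1.5 cm of covering soil.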

[4] = tested on: directly sowed rice plant; assay: Test Example 3: effect on crop by foliage application, Wagner pot (symbol b); settings: application herbicide amount 320 g/ha
Method in brief: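 Plants are raised from seed in flooded paddy conditions: water stands 0.1–0.5 cm over alluvial soil, and the pot is kept in a greenhouse at 25–30 °C. Species sown are barnyardgrass (E. crus-galli var. crus-galli), Leptochloa chinensis, Cyperus difformis and rice.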

[5] = tested on: Cyperus difformis; assay: Test Example 3: herbicidal effect by foliage application, Wagner pot (symbol E); settings: application herbicide amount 320 g/ha
Method in brief: (§4)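 Plants sown in submerged alluvial soil (water depth 0.1–0.5 cm) in a 25–30 °C greenhouse and grown 14 days. An emulsion of the compound diluted in water to a set herbicide amount was sprayed uniformly on foliage. Effect on each plant scored 3 weeks after application.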

[6] = tested on: transplanted rice plant; assay: Test Example 1: effect on crop, application before weed generation in submerged conditions (symbol a); settings: application herbicide amount 320 g/ha
Method in brief: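 Alluvial soil pots flooded to 4 cm water, sown with Echinochloa oryzacola, Scirpus juncoides and Monochoria vaginalis, then transplanted with 2.5 leaf stage rice seedlings; pre-emergence application. Greenhouse 25° C. to 30° C.; scored 0–5 by herbicidal ratio 3 weeks after application.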

[7] = tested on: Monochoria vaginalis; assay: Test Example 2: herbicidal activity, application during weed generation in submerged conditions (symbol C); settings: Table 23; application herbicide amount 320 g/ha; grade 0-5 by criteria of Test Example 1
Method in brief: as §1

[8] = tested on: beet; assay: Test Example 4: effect on crop by soil treatment (symbol f); settings: application herbicide amount 320 g/ha
Method in brief: as §3

[9] = tested on: Apera spica-venti; assay: Test Example 4: herbicidal effect by soil treatment (symbol L); settings: application herbicide amount 320 g/ha
Method in brief: (§5)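 Seeds were sown in sterilized diluvial soil, covered with about 1.5 cm of soil, and the soil surface was sprayed with a water-diluted emulsion of the compound at a predetermined rate. Plants grew in a greenhouse at 25° C. to 30° C.; effects were scored visually 3 weeks after application.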

[10] = tested on: Apera spica-venti; assay: Test Example 5: herbicidal effect by foliage application, plastic box (symbol L); settings: 320 g/ha, 3 weeks after application
Method in brief: as §2

[11] = tested on: Leptochloa chinensis; assay: Test Example 3: herbicidal effect by foliage application, Wagner pot (symbol D); settings: application herbicide amount 320 g/ha
Method in brief: as §4

[12] = tested on: Stellaria media; assay: Test Example 5: herbicidal effect by foliage application, plastic box (symbol P); settings: 320 g/ha, 3 weeks after application
Method in brief: as §2

[13] = tested on: Echinochloa crus-galli var. crus-galli; assay: Test Example 3: herbicidal effect by foliage application, Wagner pot (symbol H); settings: application herbicide amount 320 g/ha
Method in brief: as §4

[14] = tested on: Chenopodium album; assay: Test Example 4: herbicidal effect by soil treatment (symbol O); settings: application herbicide amount 320 g/ha
Method in brief: as §5

[15] = tested on: Abutilon theophrasti; assay: Test Example 5: herbicidal effect by foliage application, plastic box (symbol M); settings: 320 g/ha, 3 weeks after application
Method in brief: as §2

[16] = tested on: Echinochloa crus-galli var. crus-galli; assay: Test Example 4: herbicidal effect by soil treatment (symbol H); settings: application herbicide amount 320 g/ha
Method in brief: as §5

Row | Compound | Herbicidal effect grade, B: Scirpus juncoides [1] | O: Chenopodium album, herbicidal effect (criteria of Test Example 1) [2] | g: rapeseed, effect on crop grade [3] | effect on crop b (directly sowed rice plant), grade 0-5 [4] | herbicidal effect on E, grade 0-5 [5] | Effect grade on crop, a: transplanted rice plant [6] | Herbicidal effect grade, C: Monochoria vaginalis [7] | f: beet, effect on crop grade [8] | L: Apera spica-venti, herbicidal effect grade [9] | L: Apera spica-venti, herbicidal effect (criteria of Test Example 1) [10] | herbicidal effect on D (Leptochloa chinensis), grade 0-5 [11] | P: Stellaria media, herbicidal effect (criteria of Test Example 1) [12] | herbicidal effect on H (Echinochloa crus-galli var. crus-galli), grade 0-5 [13] | O: Chenopodium album, herbicidal effect grade [14] | M: Abutilon theophrasti, herbicidal effect (criteria of Test Example 1) [15] | H: Echinochloa crus-galli var. crus-galli, herbicidal effect grade [16] | further results
1 | CON=C(C)CC1CC(O)=C(c2c(C)cc(-c3ncccn3)cc2C)C1=O (mixture of isomers) [6-057] | 2 (Herbicidal ratio of 20% or higher and lower than 40%) | 4 (Herbicidal ratio of 70% or higher and lower than 90%) | 1 (Herbicidal ratio of 5% or higher and lower than 20%) | 5 (Herbicidal ratio of 90% or more (almost completely withered)) | 5 (Herbicidal ratio of 90% or more (almost completely withered)) | 5 (Herbicidal ratio of 90% or more (almost completely withered)) | 0 (Herbicidal ratio of 5% or lower (almost no effect)) | 0 (Herbicidal ratio of 5% or lower (almost no effect)) | 4 (Herbicidal ratio of 70% or higher and lower than 90%) | 5 (Herbicidal ratio of 90% or more (almost completely withered)) | 5 (Herbicidal ratio of 90% or more (almost completely withered)) | 4 (Herbicidal ratio of 70% or higher and lower than 90%) | 5 (Herbicidal ratio of 90% or more (almost completely withered)) | 0 (Herbicidal ratio of 5% or lower (almost no effect)) | 1 (Herbicidal ratio of 5% or higher and lower than 20%) | 5 (Herbicidal ratio of 90% or more (almost completely withered)) | –
2 | CON=C(C)CC1CC(OC(=O)N2CCOCC2)=C(c2c(C)cc(-c3ccc(F)cc3)cc2C)C1=O (mixture of isomers) [6-059] | 4 (Herbicidal ratio of 70% or higher and lower than 90%) | 5 (Herbicidal ratio of 90% or more (almost completely withered)) | 0 (Herbicidal ratio of 5% or lower (almost no effect)) | 5 (Herbicidal ratio of 90% or more (almost completely withered)) | 5 (Herbicidal ratio of 90% or more (almost completely withered)) | 5 (Herbicidal ratio of 90% or more (almost completely withered)) | 4 (Herbicidal ratio of 70% or higher and lower than 90%) | 0 (Herbicidal ratio of 5% or lower (almost no effect)) | 5 (Herbicidal ratio of 90% or more (almost completely withered)) | 5 (Herbicidal ratio of 90% or more (almost completely withered)) | 5 (Herbicidal ratio of 90% or more (almost completely withered)) | 4 (Herbicidal ratio of 70% or higher and lower than 90%) | 5 (Herbicidal ratio of 90% or more (almost completely withered)) | 0 (Herbicidal ratio of 5% or lower (almost no effect)) | 5 (Herbicidal ratio of 90% or more (almost completely withered)) | 2 (Herbicidal ratio of 20% or higher and lower than 40%) | –
3 | CON=C(C)CC1CC(OS(=O)(=O)N(C)C)=C(c2c(C)cc(-c3ccc(F)cc3)cc2C)C1=O (mixture of isomers) [6-060] | 4 (Herbicidal ratio of 70% or higher and lower than 90%) | 4 (Herbicidal ratio of 70% or higher and lower than 90%) | 0 (Herbicidal ratio of 5% or lower (almost no effect)) | 5 (Herbicidal ratio of 90% or more (almost completely withered)) | 5 (Herbicidal ratio of 90% or more (almost completely withered)) | 5 (Herbicidal ratio of 90% or more (almost completely withered)) | 4 (Herbicidal ratio of 70% or higher and lower than 90%) | 0 (Herbicidal ratio of 5% or lower (almost no effect)) | 0 (Herbicidal ratio of 5% or lower (almost no effect)) | 5 (Herbicidal ratio of 90% or more (almost completely withered)) | 5 (Herbicidal ratio of 90% or more (almost completely withered)) | 4 (Herbicidal ratio of 70% or higher and lower than 90%) | 5 (Herbicidal ratio of 90% or more (almost completely withered)) | 0 (Herbicidal ratio of 5% or lower (almost no effect)) | 5 (Herbicidal ratio of 90% or more (almost completely withered)) | 4 (Herbicidal ratio of 70% or higher and lower than 90%) | –
4 | COC(=O)CON=C(C)CC1CC(O)=C(c2c(C)cc(C)cc2C)C1=O (stereo not shown) [1-023] | 0 (Herbicidal ratio of 5% or lower (almost no effect)) | – | – | 4 (Herbicidal ratio of 70% or higher and lower than 90%) | 0 (Herbicidal ratio of 5% or lower (almost no effect)) | 1 (Herbicidal ratio of 5% or higher and lower than 20%) | 0 (Herbicidal ratio of 5% or lower (almost no effect)) | – | – | – | 5 (Herbicidal ratio of 90% or more (almost completely withered)) | – | 5 (Herbicidal ratio of 90% or more (almost completely withered)) | – | – | – | O: Chenopodium album, herbicidal effect grade [2]: 0 (Herbicidal ratio of 5% or lower (almost no effect)); g (rapeseed) effect on crop grade [3]: 0 (Herbicidal ratio of 5% or lower (almost no effect)); f (beet) effect on crop grade [8]: 0 (Herbicidal ratio of 5% or lower (almost no effect)); L (Apera spica-venti) herbicidal effect grade [9]: 4 (Herbicidal ratio of 70% or higher and lower than 90%); L: Apera spica-venti, herbicidal effect grade [10]: 4 (Herbicidal ratio of 70% or higher and lower than 90%); P: Stellaria media, herbicidal effect grade [12]: 0 (Herbicidal ratio of 5% or lower (almost no effect)); O (Chenopodium album) herbicidal effect grade [14]: 0 (Herbicidal ratio of 5% or lower (almost no effect)); M: Abutilon theophrasti, herbicidal effect grade [15]: 0 (Herbicidal ratio of 5% or lower (almost no effect)); H (Echinochloa crus-galli var. crus-galli) herbicidal effect grade [16]: 3 (Herbicidal ratio of 40% or higher and lower than 70%)
